System: 945468-187-T-J3-PDC spheroids with HUVEC/MSC, viability
Test: Anticancer human tumor 945468-187-T-J3-PDC patient-derived rectal carcinoma cell line growth inhibition [PI3K]
Settings: for IC50: curve of first compound; for viability, T/C: stronger effect = lower value
Summary of the method: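 High-throughput combination screen: PI3K inhibitors crossed with targeted small molecules on complex spheroids of tumor cells, HUVEC and MSCs at 37 degrees C, 5% CO2. Top concentration was at or near clinical Cmax (otherwise 10 microM), with half-log decrements.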
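Note: spheroids exposed to agents for 7 days before viability read.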
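Throughout, for viability, T/C: 100% = DMSO vehicle control viability.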

SMILES: CNC(=O)c1ccc(N2C(=S)N(c3ccc(C#N)c(C(F)(F)F)c3)C(=O)C2(C)C)cc1F + COc1c(OCCCN2CCOCC2)ccc2c3n(c(=NC(=O)c4cnc(N)nc4)nc12)CCN3
- IC50 (second compound 0.00316 µM): > 10000 nM
- IC50 (second compound 0.01 µM): > 10000 nM
- IC50 (second compound 0.0316 µM): > 10000 nM
- IC50 (second compound 0.1 µM): < 31.6 nM
- IC50 (second compound 0.316 µM): < 31.6 nM
- IC50 (second compound 1 µM): < 31.6 nM
- viability, T/C (second compound 0.00316 µM, first compound 0.0316 µM): 102%
- viability, T/C (second compound 0.00316 µM, first compound 0.1 µM): 94.3%
- viability, T/C (second compound 0.00316 µM, first compound 0.316 µM): 98.5%
- viability, T/C (second compound 0.00316 µM, first compound 1 µM): 84.6%
- viability, T/C (second compound 0.00316 µM, first compound 3.16 µM): 98.2%
- viability, T/C (second compound 0.00316 µM, first compound 10 µM): 99.9%
- viability, T/C (second compound 0.01 µM, first compound 0.0316 µM): 98.9%
- viability, T/C (second compound 0.01 µM, first compound 0.1 µM): 97.1%
- viability, T/C (second compound 0.01 µM, first compound 0.316 µM): 90%
- viability, T/C (second compound 0.01 µM, first compound 1 µM): 95.2%
- viability, T/C (second compound 0.01 µM, first compound 3.16 µM): 100%
- viability, T/C (second compound 0.01 µM, first compound 10 µM): 117%
- viability, T/C (second compound 0.0316 µM, first compound 0.0316 µM): 101%
- viability, T/C (second compound 0.0316 µM, first compound 0.1 µM): 103%
- viability, T/C (second compound 0.0316 µM, first compound 0.316 µM): 96.7%
- viability, T/C (second compound 0.0316 µM, first compound 1 µM): 104%
- viability, T/C (second compound 0.0316 µM, first compound 3.16 µM): 111%
- viability, T/C (second compound 0.0316 µM, first compound 10 µM): 98%
- viability, T/C (second compound 0.1 µM, first compound 0.0316 µM): 44.1%
- viability, T/C (second compound 0.1 µM, first compound 0.1 µM): 39.7%
- viability, T/C (second compound 0.1 µM, first compound 0.316 µM): 46.2%
- viability, T/C (second compound 0.1 µM, first compound 1 µM): 53.9%
- viability, T/C (second compound 0.1 µM, first compound 3.16 µM): 64.6%
- viability, T/C (second compound 0.1 µM, first compound 10 µM): 51.5%
- viability, T/C (second compound 0.316 µM, first compound 0.0316 µM): 25.1%
- viability, T/C (second compound 0.316 µM, first compound 0.1 µM): 26.6%
- viability, T/C (second compound 0.316 µM, first compound 0.316 µM): 22.8%
- viability, T/C (second compound 0.316 µM, first compound 1 µM): 23.4%
- viability, T/C (second compound 0.316 µM, first compound 3.16 µM): 28.4%
- viability, T/C (second compound 0.316 µM, first compound 10 µM): 28.5%
- viability, T/C (second compound 1 µM, first compound 0.0316 µM): 17.5%
- viability, T/C (second compound 1 µM, first compound 0.1 µM): 21.3%
- viability, T/C (second compound 1 µM, first compound 0.316 µM): 14.4%
- viability, T/C (second compound 1 µM, first compound 1 µM): 21.6%
- viability, T/C (second compound 1 µM, first compound 3.16 µM): 17.8%
- viability, T/C (second compound 1 µM, first compound 10 µM): 16.9%

SMILES: Cn1cnc2c(F)c(Nc3ccc(Br)cc3Cl)c(C(=O)NOCCO)cc21 + COc1c(OCCCN2CCOCC2)ccc2c3n(c(=NC(=O)c4cnc(N)nc4)nc12)CCN3
- IC50 (second compound 0.00316 µM): > 3000 nM
- IC50 (second compound 0.01 µM): 1250 nM
- IC50 (second compound 0.0316 µM): 154 nM
- IC50 (second compound 0.1 µM): < 9.49 nM
- IC50 (second compound 0.316 µM): < 9.49 nM
- IC50 (second compound 1 µM): < 9.49 nM
- viability, T/C (second compound 0.00316 µM, first compound 0.00949 µM): 103%
- viability, T/C (second compound 0.00316 µM, first compound 0.03 µM): 99.9%
- viability, T/C (second compound 0.00316 µM, first compound 0.0949 µM): 103%
- viability, T/C (second compound 0.00316 µM, first compound 0.3 µM): 91.7%
- viability, T/C (second compound 0.00316 µM, first compound 0.949 µM): 91.8%
- viability, T/C (second compound 0.00316 µM, first compound 3 µM): 68%
- viability, T/C (second compound 0.01 µM, first compound 0.00949 µM): 96.1%
- viability, T/C (second compound 0.01 µM, first compound 0.03 µM): 103%
- viability, T/C (second compound 0.01 µM, first compound 0.0949 µM): 89.8%
- viability, T/C (second compound 0.01 µM, first compound 0.3 µM): 80.7%
- viability, T/C (second compound 0.01 µM, first compound 0.949 µM): 56.4%
- viability, T/C (second compound 0.01 µM, first compound 3 µM): 29.9%
- viability, T/C (second compound 0.0316 µM, first compound 0.00949 µM): 93.5%
- viability, T/C (second compound 0.0316 µM, first compound 0.03 µM): 67.4%
- viability, T/C (second compound 0.0316 µM, first compound 0.0949 µM): 64.3%
- viability, T/C (second compound 0.0316 µM, first compound 0.3 µM): 36.4%
- viability, T/C (second compound 0.0316 µM, first compound 0.949 µM): 27.8%
- viability, T/C (second compound 0.0316 µM, first compound 3 µM): 13.7%
- viability, T/C (second compound 0.1 µM, first compound 0.00949 µM): 42.2%
- viability, T/C (second compound 0.1 µM, first compound 0.03 µM): 33.9%
- viability, T/C (second compound 0.1 µM, first compound 0.0949 µM): 27.4%
- viability, T/C (second compound 0.1 µM, first compound 0.3 µM): 14.7%
- viability, T/C (second compound 0.1 µM, first compound 0.949 µM): 9.64%
- viability, T/C (second compound 0.1 µM, first compound 3 µM): 3.84%
- viability, T/C (second compound 0.316 µM, first compound 0.00949 µM): 17.5%
- viability, T/C (second compound 0.316 µM, first compound 0.03 µM): 18.3%
- viability, T/C (second compound 0.316 µM, first compound 0.0949 µM): 10%
- viability, T/C (second compound 0.316 µM, first compound 0.3 µM): 8.2%
- viability, T/C (second compound 0.316 µM, first compound 0.949 µM): 3.92%
- viability, T/C (second compound 0.316 µM, first compound 3 µM): 1.13%
- viability, T/C (second compound 1 µM, first compound 0.00949 µM): 13.6%
- viability, T/C (second compound 1 µM, first compound 0.03 µM): 8.89%
- viability, T/C (second compound 1 µM, first compound 0.0949 µM): 7.97%
- viability, T/C (second compound 1 µM, first compound 0.3 µM): 4.92%
- viability, T/C (second compound 1 µM, first compound 0.949 µM): 4.14%
- viability, T/C (second compound 1 µM, first compound 3 µM): 1.82%

— PubChem BioAssay AID1963968 (Molecular Pharmacology Branch, DTP, NCI, 2024)
